≈ marks a conversion by molar mass, not a printed value. Read-outs that look alike come from different tables or passages of the source.
Legend:
Assay in all cases: Antibiotic MIC plates (resistance profile)
Assay type in all cases: cell-based
[1] = tested on: Lactococcus lactis subsp. lactis MM19; conditions: MM19, median of two repetitions
Description: (§1) The protocol was adapted from Delgado et al. (2005). Minimum Inhibitory Concentration (MIC) Plate (# GPN3F) and Anaerobe MIC Plate (# AN02B) were used to determine the antibiotic sensitivity and resistance profile of MM19 and MM33 according to the instructions of the manufacturer (Trek Diagnostic Systems; Nova Century, Burlington, ON, Canada).
(§2) Lactococcus lactis subsp. lactis MM19, Pediococcus acidilactici MM33 and Lactobacillus rhamnosus GG (ATCC 53103) from frozen glycerol stock were first inoculated in Lactobacilli MRS and incubated at 37° C. for 18 h. 100 μl of this culture were further incubated under the same conditions. This second culture was then inoculated on a MRS agar plate and incubated at 37° C. for 48 h under anaerobic conditions using GasPak Plus system (BD BBL, Sparks, Md., USA).

[2] = tested on: Lactobacillus rhamnosus GG (ATCC 53103); conditions: median of two repetitions
Description: as §1, §2

[3] = tested on: Pediococcus acidilactici MM33; conditions: median of two repetitions
Description: as §1, §2

[4] = Lactococcus lactis, GPN3F plate, read-out: MIC
[5] = Lacticaseibacillus rhamnosus, ATCC53103, L. rhamnosus GG, GPN3F plate, read-out: MIC
[6] = Pediococcus acidilactici, MM33, MM33, GPN3F plate, read-out: MIC
[7] = Lactococcus lactis, ANO2 plate, read-out: MIC
[8] = Lacticaseibacillus rhamnosus, ATCC53103, L. rhamnosus GG, ANO2 plate, read-out: MIC
[9] = Pediococcus acidilactici, MM33, MM33, ANO2 plate, read-out: MIC

Compound	MIC [1, 4] [µg/mL]	MIC [2, 5] [µg/mL]	MIC [3, 6] [µg/mL]	MIC [1, 7] [µg/mL]	MIC [2, 8] [µg/mL]	MIC [3, 9] [µg/mL]	further results
COc1c(N2CCNC(C)C2)c(F)cc2c(=O)c(C(=O)O)cn(C3CC3)c12 (stereo not drawn) [GAT, Gatofloxacin]	–	–	–	–	–	–	MIC ([1]; GPN3F plate): <1 µg/mL; MIC ([2]; L. rhamnosus GG, GPN3F plate): <1 µg/mL; MIC ([3]; MM33, GPN3F plate): <1 µg/mL
CO[C@H]1/C=C/O[C@@]2(C)Oc3c(C)c(O)c4c(O)c(c(/C=N/N5CCN(C)CC5)c(O)c4c3C2=O)NC(=O)/C(C)=C\C=C\[C@H](C)[C@H](O)[C@@H](C)[C@@H](O)[C@@H](C)[C@H](OC(C)=O)[C@@H]1C [RIF, Rifampin]	> 4	< 0.5	0.5 to 1 (≈ 0.608 to 1.22 µM)	–	–	–	–
C[C@@H](O)[C@H]1C(=O)N2C(C(=O)O)=C(S[C@@H]3CN[C@H](C(=O)N(C)C)C3)[C@H](C)[C@H]12 [MERO, Meropenem]	–	–	–	< 0.5	8 (≈ 20.9 µM)	2 (≈ 5.22 µM)	–
O=C(O)c1cn(C2CC2)c2cc(N3CCNCC3)c(F)cc2c1=O [CIP, Ciprofloxacin]	2 (≈ 6.04 µM)	1 (≈ 3.02 µM)	–	–	–	–	–
Trimethoprim/Sulfamethoxazole [SXT]	–	–	–	–	–	–	MIC ([1]; GPN3F plate): >4/76; MIC ([2]; L. rhamnosus GG, GPN3F plate): >4/76; MIC ([3]; MM33, GPN3F plate): >4/76
Ampicillin/Sulbactam [A/S]	–	–	–	–	–	–	MIC ([3]; MM33, ANO2 plate): 4/2
Cc1ncc([N+](=O)[O-])n1CCO [MRD, Metronidazole]	–	–	–	> 16	> 16	> 16	–
CC[C@H]1OC(=O)[C@H](C)[C@@H](O[C@H]2C[C@@](C)(OC)[C@@H](O)[C@H](C)O2)[C@H](C)[C@@H](O[C@@H]2O[C@H](C)C[C@H](N(C)C)[C@H]2O)[C@](C)(O)C[C@@H](C)C(=O)[C@H](C)[C@@H](O)[C@]1(C)O [ERY, Erythromycin]	< 0.25	< 0.25	< 0.25	–	–	–	–
CCCCCCCCCC(=O)N[C@@H](Cc1c[nH]c2ccccc12)C(=O)N[C@H](CC(N)=O)C(=O)N[C@@H](CC(=O)O)C(=O)N[C@@H]1C(=O)NCC(=O)N[C@@H](CCCN)C(=O)N[C@@H](CC(=O)O)C(=O)N[C@H](C)C(=O)N[C@@H](CC(=O)O)C(=O)NCC(=O)N[C@H](CO)C(=O)N[C@@H]([C@H](C)CC(=O)O)C(=O)N[C@@H](CC(=O)c2ccccc2N)C(=O)O[C@@H]1C [DAP, Daptomycin]	0.5 to 1 (≈ 0.309 to 0.617 µM)	2 (≈ 1.23 µM)	1 (≈ 0.617 µM)	–	–	–	–
Penicillin	–	–	–	–	–	–	MIC ([1]; ANO2 plate): 0.5 µg/mL; MIC ([1]; GPN3F plate): 0.25 to 0.5 µg/mL; MIC ([2]; L. rhamnosus GG, ANO2 plate): 0.5 µg/mL; MIC ([2]; L. rhamnosus GG, GPN3F plate): 0.5 µg/mL; MIC ([3]; MM33, ANO2 plate): 1 µg/mL; MIC ([3]; MM33, GPN3F plate): 0.5 µg/mL
CN(C)[C@@H]1C(O)=C(C(N)=O)C(=O)[C@@]2(O)C(O)=C3C(=O)c4c(O)cccc4[C@@](C)(O)[C@H]3C[C@@H]12 [TET, Tetracycline]	< 2	< 2	> 16	0.375 (≈ 0.844 µM)	1 (≈ 2.25 µM)	> 8	–
CCN1CCN(C(=O)N[C@@H](C(=O)N[C@@H]2C(=O)N3[C@@H]2SC(C)(C)[C@@H]3C(=O)O)c2ccccc2)C(=O)C1=O [PIP, Piperacillin]	–	–	–	< 4	< 4	8 (≈ 15.5 µM)	–
O=C(N[C@H](CO)[C@H](O)c1ccc([N+](=O)[O-])cc1)C(Cl)Cl [CHL, Chloramphenicol]	–	–	–	4 (≈ 12.4 µM)	8 (≈ 24.8 µM)	16 (≈ 49.5 µM)	–
Oxacillin + 2% NaCl [OXA+]	–	–	–	–	–	–	MIC ([1]; GPN3F plate): 1 µg/mL; MIC ([2]; L. rhamnosus GG, GPN3F plate): 0.25 to 0.5 µg/mL; MIC ([3]; MM33, GPN3F plate): 2 µg/mL
C[C@H]1COc2c(N3CCN(C)CC3)c(F)cc3c(=O)c(C(=O)O)cn1c23 [LEVO, Levofloxacin]	0.5 (≈ 1.38 µM)	2 to 4 (≈ 5.53 to 11.1 µM)	> 8	–	–	–	–
